Results published in US10047087B2, “Substituted pyrazolo[1,5-A] pyridine as tropomyosin receptor kinase (TrK) inhibitors” (Dr. Reddy's Laboratories Ltd., priority 2011, dated 2018).

biological target: T1, TrkA kinase (Homo sapiens, UniProt P04629); experiment: In vitro TrkA inhibitory activity using TR-FRET assay; assay type: biochemical; details: 5 ng TrkA, 500 μM ATP, both bounds given in nm, read-out: TrkA inhibitory activity in-vitro IC50
T1 construct: purchased Upstate, USA
Method: Determination of In Vitro TrkA Inhibitory Activity Using TR-FRET Assay
Compounds were screened in the TR-FRET assay with TrkA kinase. 5 ng of TrkA [Upstate, USA] kinase was used for assay. The compound was incubated with the kinase for 30 minutes at 20-35° C. After the incubation, substrate mix [40 nM Ultra light poly GT (Perkin Elmer, USA) and 500 μM ATP] was added. The above reaction was stopped by the addition of 40 mM EDTA after 30 minutes. The Eu-labelled antiphospho-tyrosine antibody [Perkin Elmer, USA] was added at 0.5 nM and the fluorescence emission at 615 nm/665 nm [excitation at 340 nm] was measured. The compounds were initially screened at 100 nM, 1 μM and 10 μM concentrations. The potent compounds with >25% inhibition at 1 μM of TrkA were taken for the full dose response studies. The final DMSO concentration in the assay was […]. For IC50 determination, ⅓^rd serial dilution was made from the 20 mM DMSO stock solution. 2 μl of these were transferred to the test wells containing 20 μl reaction mixture [Total reaction volume 22 μl]. The fluorescence was measured in Perkin Elmer Wallac 1420 Multilabel Counter Victor 3. The IC50 was determined by fitting the dose response data to a sigmoidal curve fitting equation using GraphPad Prism software version 5.

T1 sequence (P04629 33-796): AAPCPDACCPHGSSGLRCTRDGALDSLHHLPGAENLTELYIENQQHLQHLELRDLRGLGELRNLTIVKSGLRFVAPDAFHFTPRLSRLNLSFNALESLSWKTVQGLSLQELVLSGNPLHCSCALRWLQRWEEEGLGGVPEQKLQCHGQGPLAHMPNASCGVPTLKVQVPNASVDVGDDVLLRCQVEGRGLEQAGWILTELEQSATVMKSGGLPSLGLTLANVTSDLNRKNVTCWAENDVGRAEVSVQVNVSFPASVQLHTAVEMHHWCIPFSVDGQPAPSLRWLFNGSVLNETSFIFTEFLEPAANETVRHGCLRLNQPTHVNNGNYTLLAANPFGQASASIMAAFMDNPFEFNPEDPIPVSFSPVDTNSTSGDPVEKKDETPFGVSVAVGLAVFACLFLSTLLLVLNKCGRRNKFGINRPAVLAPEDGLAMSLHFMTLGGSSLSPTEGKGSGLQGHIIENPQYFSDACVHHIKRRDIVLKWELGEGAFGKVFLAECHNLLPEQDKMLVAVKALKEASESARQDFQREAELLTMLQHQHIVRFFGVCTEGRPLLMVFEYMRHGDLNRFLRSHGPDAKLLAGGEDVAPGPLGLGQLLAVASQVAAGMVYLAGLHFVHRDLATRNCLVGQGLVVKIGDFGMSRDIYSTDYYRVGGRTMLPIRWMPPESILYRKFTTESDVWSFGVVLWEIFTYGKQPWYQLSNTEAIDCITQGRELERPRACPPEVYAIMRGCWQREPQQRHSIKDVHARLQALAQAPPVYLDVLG

| SMILES | IC50 [µM] |
| --- | --- |
| CC(C)(C)S(=O)(=O)NC(=O)c1cnn2ccc(N3CCC[C@@H]3c3cc(F)ccc3OCC(F)(F)F)cc12 [Example 49, (R)-N-(tert-butylsulfonyl)-5-(2-(5-fluoro-2-(2,2,2-trifluoroethoxy)phenyl)pyrrolidin-1-yl)pyrazolo[1,5-a]pyridine-3-carboxamide] | 0.1 to 0.5 |
| CC(C)(C)S(=O)(=O)NC(=O)c1cnn2ccc(N3CCC[C@@H]3c3cc(F)ccc3-c3ccc(F)cc3)cc12 [Example 54, (R)-N-(tert-butylsulfonyl)-5-(2-(4,4′-difluoro-[1,1′-biphenyl]-2-yl)pyrrolidin-l-yl)pyrazolo[1,5-a]pyridine-3-carboxamide] | 0.1 to 0.5 |
| CC(C)(C)S(=O)(=O)NC(=O)c1cnn2ccc(N3CCC[C@@H]3c3cc(F)ccc3F)c(F)c12 [Example 61, (R)-N-(tert-butylsulfonyl)-5-(2-(2,5-difluorophenyl)pyrrolidin-1-yl)-4-fluoro pyrazolo[1,5-a] pyridine-3-carboxamide] | 0.1 to 0.5 |
| CC(C)(C)S(=O)(=O)NC(=O)c1cnn2ccc(N3CCC[C@@H]3c3cc(F)cc(F)c3)cc12 [Example 66, (R)-N-(tert-butylsulfonyl)-5-(2-(3,5-difluorophenyl)pyrrolidin-1-yl)pyrazolo[1,5-a]pyridine-3-carboxamide] | 0.1 to 0.5 |
| CC(C)S(=O)(=O)NC(=O)c1cnn2ccc(N3CCC[C@@H]3c3cc(F)cc(F)c3)cc12 [Example 71, (R)-5-(2-(3,5-difluorophenyl)pyrrolidin-1-yl)-N-(isopropylsulfonyl)pyrazolo[1,5-a] pyridine-3-carboxamide] | 0.1 to 0.5 |
| O=C(NS(=O)(=O)c1ccc(-n2cncn2)nc1)c1cnn2ccc(N3CCC[C@@H]3c3cc(F)cc(F)c3)cc12 [Example 72, (R)-N-((6-(1H-1,2,4-triazol-1-yl)pyridin-3-yl)sulfonyl)-5-(2-(3,5-difluorophenyl)pyrrolidin-1-yl)pyrazolo[1,5-a]pyridine-3-carboxamide] | 0.1 to 0.5 |

More lines, now with the values ahead:

| IC50 [µM] | SMILES |
| --- | --- |
| 0.1 to 0.5 | CN1CCN(S(=O)(=O)NC(=O)c2cnn3ccc(N4CCC[C@@H]4c4cc(F)ccc4F)cc23)CC1 [Example 86, (R)-5-(2-(2,5-difluorophenyl)pyrrolidin-1-yl)-N-((4-methylpiperazin-1-yl)sulfonyl)pyrazolo[1,5-a]pyridine-3-carboxamide] |
| 0.1 to 0.5 | O=C(NS(=O)(=O)N1CC[C@H](O)C1)c1cnn2ccc(N3CCC[C@@H]3c3cc(F)ccc3F)cc12 [Example 93, 5-((R)-2-(2,5-difluorophenyl)pyrrolidin-1-yl)-N-(((S)-3-hydroxypyrrolidin-1-yl)sulfonyl)pyrazolo[1,5-a] pyridine-3-carboxamide] |
| 0.1 to 0.5 | CC(C)(C)S(=O)(=O)NC(=O)c1cnn2ccc(N3CCC[C@@H]3c3cc(F)cc4c3OCCO4)cc12 [Example 130, Sodium (R)-(tert-butylsulfonyl)(5-(2-(7-fluoro-2,3-dihydrobenzo[b][1,4]dioxin-5-yl)pyrrolidin-1-yl)pyrazolo[1,5-a]pyridine-3-carbonyl)amide] |

same assay, conditions: 5 ng TrkA, 500 μM ATP, lower bound in nm [sic], upper bound in μM, read-out: TrkA inhibitory activity in-vitro IC50

| IC50 [µM] | SMILES |
| --- | --- |
| 0.5 to 1 | CC(C)(C)S(=O)(=O)NC(=O)c1cnn2ccc(N3C[C@H](F)C[C@@H]3c3cc(F)ccc3F)cc12 [Example 58, N-(tert-butylsulfonyl)-5-((2R,4R)-2-(2,5-difluorophenyl)-4-fluoropyrrolidin-1-yl) pyrazolo[1,5-a]pyridine-3-carboxamide] |
| 0.5 to 1 | COCCOc1cc(F)cc([C@H]2CCCN2c2ccn3ncc(C(=O)NS(=O)(=O)C(C)(C)C)c3c2)c1 [Example 67, (R)-N-(tert-butylsulfonyl)-5-(2-(3-fluoro-5-(2-methoxyethoxy)phenyl)pyrrolidin-1-yl) pyrazolo[1,5-a]pyridine-3-carboxamide] |
| 0.5 to 1 | CC(C)(C)S(=O)(=O)NC(=O)c1cnn2ccc(N3CCC[C@@H]3c3cc(F)cc(OC4CCOC4)c3)cc12 (stereo partly drawn) [Example 68, N-(tert-butylsulfonyl)-5-((2R)-2-(3-fluoro-5-((tetrahydrofuran-3-yl)oxy)phenyl)pyrrolidin-1-yl)pyrazolo[1,5-a]pyridine-3-carboxamide] |
| 0.5 to 1 | O=C(NS(=O)(=O)c1ccc(F)cc1)c1cnn2ccc(N3CCC[C@@H]3c3cc(F)cc(F)c3)cc12 [Example 69, (R)-5-(2-(3,5-difluorophenyl)pyrrolidin-1-yl)-N-((4-fluorophenyl)sulfonyl)pyrazolo[1,5-a]pyridine-3-carboxamide] |

same assay, conditions: 5 ng TrkA, 500 μM ATP, read-out: TrkA inhibition in-vitro IC50

| SMILES | IC50 [µM] |
| --- | --- |
| CC(C)(C)S(=O)(=O)NC(=O)c1cnn2ccc(N3CCC[C@@H]3c3cc(F)ccc3OC3CCOC3)cc12 (stereo partly drawn) [Example 60, N-(tert-butylsulfonyl)-5-((2R)-2-(5-fluoro-2-((tetrahydrofuran-3-yl)oxy)phenyl)pyrrolidin-1-yl)pyrazolo[1,5-a]pyridine-3-carboxamide] | 0.05 to 0.1 |
| CC(C)(C)S(=O)(=O)NC(=O)c1cnn2ccc(N3CCC[C@@H]3c3cc(F)ccc3OC(F)F)cc12 [Example 63, (R)-N-(tert-butylsulfonyl)-5-(2-(2-(difluoromethoxy)-5-fluorophenyl)pyrrolidin-1-yl) pyrazolo[1,5-a]pyridine-3-carboxamide] | 0.05 to 0.1 |
| O=C(NS(=O)(=O)c1ccc(N2CC[C@H](O)C2)cc1)c1cnn2ccc(N3CCC[C@@H]3c3cc(F)cc(F)c3)cc12 [Example 70, 5-((R)-2-(3,5-difluorophenyl)pyrrolidin-1-yl)-N-((4-((S)-3-hydroxypyrrolidin-1-yl)phenyl)sulfonyl)pyrazolo[1,5-a] pyridine-3-carboxamide] | ≤ 0.05 |
| O=C(NS(=O)(=O)c1ccc(N2CC[C@H](O)C2)nc1)c1cnn2ccc(N3CCC[C@@H]3c3cc(F)cc(F)c3)cc12 [Example 73, 5-((R)-2-(3,5-difluorophenyl)pyrrolidin-1-yl)-N-((6-((S)-3-hydroxypyrrolidin-1-yl)pyridin-3-yl)sulfonyl)pyrazolo[1,5-a] pyridine-3-carboxamide] | ≤ 0.05 |

Continued, values first:

| IC50 [µM] | SMILES |
| --- | --- |
| ≤ 0.05 | CN(CC1CC1)S(=O)(=O)NC(=O)c1cnn2ccc(N3CCC[C@@H]3c3cc(F)ccc3F)cc12 [Example 80, (R)-N-(N-(cyclopropylmethyl)-N-methylsulfamoyl)-5-(2-(2,5-difluorophenyl)pyrrolidin-1-yl)pyrazolo[1,5-a]pyridine-3-carboxamide] |
| ≤ 0.05 | CCN(CC)S(=O)(=O)NC(=O)c1cnn2ccc(N3CCC[C@@H]3c3cc(F)ccc3F)cc12 [Example 81, (R)-N-(N,N-diethylsulfamoyl)-5-(2-(2,5-difluorophenyl)pyrrolidin-1-yl)pyrazolo[1,5-a]pyridine-3-carboxamide] |
| ≤ 0.05 | O=C(NS(=O)(=O)N1CCOCC1)c1cnn2ccc(N3CCC[C@@H]3c3cc(F)ccc3F)cc12 [Example 84, (R)-5-(2-(2,5-difluorophenyl)pyrrolidin-1-yl)-N-(morpholinosulfonyl) pyrazolo[1,5-a]pyridine-3-carboxamide] |
| ≤ 0.05 | O=C(NS(=O)(=O)N1CCCC1)c1cnn2ccc(N3CCC[C@@H]3c3cc(F)ccc3F)cc12 [Example 85, (R)-5-(2-(2,5-difluorophenyl)pyrrolidin-1-yl)-N-(pyrrolidin-1-ylsulfonyl)pyrazolo[1,5-a]pyridine-3-carboxamide] |
| ≤ 0.05 | CCN(CC)S(=O)(=O)NC(=O)c1cnn2ccc(N3CCC[C@@H]3c3cc(F)ccc3OC)cc12 [Example 87, (R)-N-(N,N-diethylsulfamoyl)-5-(2-(5-fluoro-2-methoxyphenyl)pyrrolidin-1-yl) pyrazolo[1,5-a]pyridine-3-carboxamide] |
| ≤ 0.05 | CCN(CC)S(=O)(=O)NC(=O)c1cnn2ccc(N3CCC[C@@H]3c3cc(F)ccc3OCCF)cc12 [Example 88, (R)-N-(N,N-diethylsulfamoyl)-5-(2-(5-fluoro-2-(2-fluoroethoxy)phenyl)pyrrolidin-1-yl)pyrazolo[1,5-a]pyridine-3-carboxamide] |
| ≤ 0.05 | O=C(NS(=O)(=O)N1CCCCC1)c1cnn2ccc(N3CCC[C@@H]3c3cc(F)ccc3F)cc12 [Example 89, (R)-5-(2-(2,5-difluorophenyl)pyrrolidin-1-yl)-N-(piperidin-1-ylsulfonyl)pyrazolo[1,5-a] pyridine-3-carboxamide] |
| ≤ 0.05 | CCN(C)S(=O)(=O)NC(=O)c1cnn2ccc(N3CCC[C@@H]3c3cc(F)cc(F)c3OC)cc12 [Example 90, (R)-5-(2-(3,5-difluoro-2-methoxyphenyl)pyrrolidin-1-yl)-N-(N-ethyl-N-methylsulfamoyl) pyrazolo[1,5-a]pyridine-3-carboxamide] |
| ≤ 0.05 | CCN(C)S(=O)(=O)NC(=O)c1cnn2ccc(N3CCC[C@@H]3c3cc(F)cc(F)c3OCCF)cc12 [Example 94, (R)-5-(2-(3,5-difluoro-2-(2-fluoroethoxy)phenyl)pyrrolidin-1-yl)-N-(N-ethyl-N-methylsulfamoyl)pyrazolo[1,5-a]pyridine-3-carboxamide] |
| ≤ 0.05 | CC(C)(C)S(=O)(=O)NC(=O)c1cnn2ccc(N3C[C@@H](F)C[C@@H]3c3cc(F)ccc3F)cc12 [Example 128, Sodium (tert-butylsulfonyl)(5-((2R,4S)-2-(2,5-difluorophenyl)-4-fluoropyrrolidin-1-yl)pyrazolo[1,5-a]pyridine-3-carbonyl)amide] |
